Data on 5 molecules can be found in patent publication US9556114B2, “Fluorinated 2-amino-4-(benzylamino)phenylcarbamate derivatives” (SciFluor Life Sciences, Inc., priority 2012, dated 2017).

Where “and” joins values, the source holds several entries; their conditions need not be identical. Equal values may be shown once.

For this test, the target named is T1, cloned KCNQ2/3 potassium channels (encoded by the human KCNQ2/3 gene and expressed in HEK293 cells) (Homo sapiens, UniProt O43525+O43526).
T1 construct: expressed in transfected cells; host or cells: HEK293 cells
As to the kind of experiment: Assessment of KCNQ2/3 channel activation activity, QPatch HT automatic parallel patch clamp. Format: cell-based. Conditions: for KCNQ2/3 activation activity compared with ezogabine: single concentration (0.1 μM); for Mean % KCNQ2/3 Activation: 5 min exposure, room temperature, HEK293 cells; for Individual Data Points (% Activation): single cell values. On the procedure: The in vitro effects of ezogabine and Compound 1A on cloned KCNQ2/3 potassium channels (encoded by the human KCNQ2/3 gene and expressed in HEK293 cells) were evaluated at room temperature using the QPatch HT® (Sophion Bioscience A/S, Denmark), an automatic parallel patch clamp system. Each test article was evaluated at 0.01, 0.1, 1, 10 and 100 μM with each concentration tested in at least two cells (n≧2). The duration of exposure to each test article concentration was 5 minutes.
The baseline for each recording was established using a 5-10 minute vehicle application (HBPS+0.3% DMSO). A single test article concentration was applied for a period of 5 minutes after the vehicle, followed by a 3 minute application of 30 μM flupirtine. Each recording ended with a supramaximal dose of 30 μM linopirdine. The % activation was calculated using the following equation by using leak subtracted responses: […]
Background: Patch clamp records ionic current or voltage across a cell membrane.

On to `CCOC(=O)Nc1cc(F)c(NCc2ccc(F)cc2)cc1N` [Compound 3A, ethyl(2-amino-5-fluoro-4-((4-fluorobenzyl)amino)phenyl)carbamate], for which the “KCNQ2/3 activation activity compared with ezogabine” value is “equivalent in activity to ezogabine”.
Turning to `CCOC(=O)Nc1ccc(NCc2ccc(F)cc2)cc1N` [ezogabine, ethyl N-[2-amino-4-[(4-fluorophenyl)methylamino]phenyl]carbamate, reference compound], the “Mean % KCNQ2/3 Activation” value reads like this: (0.01 μM) 6.6%; (0.1 μM) 40.6%; (1 μM) 94.4%; (10 μM) 132.0%; (100 μM) 104.1%. Moreover, the “Individual Data Points (% Activation)” value is 2.1% and 11.1% (0.01 μM); 49.1% and 32.2% (0.1 μM); 93.6% and 95.2% (1 μM); 123.7% and 140.4% (10 μM); 93.8% and 101.9% and 116.5% (100 μM).
Take `CCOC(=O)Nc1c(N)cc(NCc2ccc(F)cc2)cc1F` [Compound 2A, ethyl(2-amino-6-fluoro-4-((4-fluorobenzyl)amino)phenyl)carbamate]: the “KCNQ2/3 activation activity compared with ezogabine” value is given as “equivalent in activity to ezogabine”.
For `CCOC(=O)Nc1ccc(NCc2ccc(F)cc2)c(F)c1N` [Compound 1A, ethyl(2-amino-3-fluoro-4-((4-fluorobenzyl)amino)phenyl)carbamate], the “Mean % KCNQ2/3 Activation” value is given as 31.4% (0.01 μM); 62.9% (0.1 μM); 125.5% (1 μM); 119.9% (10 μM); 61.9% (100 μM). The “Individual Data Points (% Activation)” value (0.01 μM, listed as Compound lA) was 35.9% and 26.9%; the “Individual Data Points (% Activation)” value (0.1 μM, listed as Compound lA) was 98.9% and 43.3% and 46.6%; the “Individual Data Points (% Activation)” value (1 μM, listed as Compound lA) is 123.5% and 127.6%; the “Individual Data Points (% Activation)” value (10 μM, listed as Compound lA) was 119.7% and 120.1%; the “Individual Data Points (% Activation)” value (100 μM, listed as Compound lA) was 56.6% and 67.3%.
`CCOC(=O)Nc1cc(F)c(NCc2ccc(F)cc2)c(F)c1N` [Compound 4A, ethyl(2-amino-3,5-difluoro-4-((4-fluorobenzyl)amino)phenyl)carbamate]: the “KCNQ2/3 activation activity compared with ezogabine” value is recorded as “equivalent in activity to ezogabine”.
